This note sets out measurements from patent publication US20050228050A1, “Novel stable crystals of substituted phenylpropionic acid derivative and process for producing the same” (priority 2001, published 2005).

Data set [1] is described as follows: Differential thermal analysis (DTA) and thermogravimetry (TG) of crystals. It is filed as physicochemical. The method, then:
Differential Thermal Analysis (DTA) and Thermogravimetry (TG)
The thermal stability of crystals was compared by using apparatus for thermal analysis (SII: TG/DTA6200). […] With the new type crystals, the endothermic phenomenon due to transition was seen from 131.4° C. and the endothermic peak due to melting was shown at 132.0° C.

Data set [2] is described as follows: Hygroscopicity of crystals. To be noted: stated without described test. Type of data set: physicochemical.

Consider `CC[C@@H](Cc1ccc(OC)c(C(=O)NCc2ccc(Oc3ccc(F)cc3)cc2)c1)C(=O)O` [new type crystals, (S)-2-[[3-[N-[4-[(4-fluorophenoxy)phenyl]methyl]-carbamoyl]-4-methoxyphenyl]methyl]butanoic acid], for which the “weight change in thermogravimetry” value in data set [1] (TG/DTA6200 thermal analysis, FIG. 3 and 4) is “no weight change”. In addition, in data set [1] (conclusion from DTA/TG comparison of new and old type crystals), the “thermal stability of crystals” value is “thermally stable”. Besides, in data set [2], the hygroscopicity entry is listed as “no hygroscopicity”.
